From the supplement of paper PMC4862054

Test system: BT-474
Assay: normalised response (% of control), CellTiter-Glo; higher = more viable cells (100 = DMSO, 0 = benzethonium chloride kill control)
Settings: incubation time: 72 h
In short: (§1)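 The table gives the normalised signal for a single concentration in each entry. Breast cancer cell lines were seeded (20 µl suspension) into 384-well plates holding compound at 5 concentrations in 10-fold steps over a compound-specific 10,000-fold range and incubated 72 h, then read for CellTox Green fluorescence (485/520 nm) and CellTiter-Glo luminescence. Normalisation on each plate used 0.1 % DMSO (100) and a positive kill control (0).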

Question: With `CC(=O)[C@]1(O)Cc2c(O)c3c(c(O)c2[C@@H](O[C@H]2C[C@H](N)[C@H](O)[C@H](C)O2)C1)C(=O)c1ccccc1C3=O` [Idarubicin] (0.1 nM) as the compound, how does the normalised response read?
Answer: The normalised response was 106%.

Question: `C/C(=C\c1csc(C)n1)[C@@H]1C[C@@H]2O[C@]2(C)CCC[C@H](C)[C@H](O)[C@@H](C)C(=O)C(C)(C)[C@@H](O)CC(=O)N1` [Ixabepilone] (0.1 nM) was tested. Which normalised response did it give?
Answer: Its normalised response is 104%.

Question: `C=CCn1c(=O)c2cnc(Nc3ccc(N4CCN(C)CC4)cc3)nc2n1-c1cccc(C(C)(C)O)n1` [MK1775] (1 nM) was tested. Which normalised response did it give?
Answer: Its normalised response is 94.4%.

Question: How did the normalised response turn out when `CO[C@@H]1[C@H](N(C)C(=O)c2ccccc2)C[C@H]2O[C@]1(C)n1c3ccccc3c3c4c(c5c6ccccc6n2c5c31)C(=O)NC4` [Midostaurin] (1 nM) was run?
Answer: Its normalised response is 97.3%.

Question: Which normalised response does the source give for `CO[C@@]12[C@H](COC(N)=O)C3=C(C(=O)C(C)=C(N)C3=O)N1C[C@@H]1N[C@@H]12` [Mitomycin C] (1 nM) here?
Answer: Its normalised response is 92.3%.

Question: `CCNC(=O)c1noc(-c2cc(C(C)C)c(O)cc2O)c1-c1ccc(CN2CCOCC2)cc1` [NVP-AUY922] (0.1 nM) was tested. Which normalised response did it give?
Answer: The normalised response was 113%.

Test system: BT-549
Assay: as above
Settings: incubation time: 72 h
In short: as §1

Question: With `CC(=O)[C@]1(O)Cc2c(O)c3c(c(O)c2[C@@H](O[C@H]2C[C@H](N)[C@H](O)[C@H](C)O2)C1)C(=O)c1ccccc1C3=O` [Idarubicin] (0.1 nM) as the compound, how does the normalised response read?
Answer: The normalised response was 105%.

Question: For `C/C(=C\c1csc(C)n1)[C@@H]1C[C@@H]2O[C@]2(C)CCC[C@H](C)[C@H](O)[C@@H](C)C(=O)C(C)(C)[C@@H](O)CC(=O)N1` [Ixabepilone] (0.1 nM), which normalised response is on record?
Answer: Its normalised response is 98.8%.

Question: For `C=CCn1c(=O)c2cnc(Nc3ccc(N4CCN(C)CC4)cc3)nc2n1-c1cccc(C(C)(C)O)n1` [MK1775] (1 nM), which normalised response is on record?
Answer: Its normalised response is 101%.

Question: `CO[C@@H]1[C@H](N(C)C(=O)c2ccccc2)C[C@H]2O[C@]1(C)n1c3ccccc3c3c4c(c5c6ccccc6n2c5c31)C(=O)NC4` [Midostaurin] (1 nM) was tested. Which normalised response did it give?
Answer: Its normalised response is 101%.

Question: For `CO[C@@]12[C@H](COC(N)=O)C3=C(C(=O)C(C)=C(N)C3=O)N1C[C@@H]1N[C@@H]12` [Mitomycin C] (1 nM), which normalised response is on record?
Answer: Its normalised response is 105%.

Question: How did the normalised response turn out when `CCNC(=O)c1noc(-c2cc(C(C)C)c(O)cc2O)c1-c1ccc(CN2CCOCC2)cc1` [NVP-AUY922] (0.1 nM) was run?
Answer: Its normalised response is 107%.

Test system: CAL-120
Assay: as above
Settings: incubation time: 72 h
In short: as §1

Question: With `CC(=O)[C@]1(O)Cc2c(O)c3c(c(O)c2[C@@H](O[C@H]2C[C@H](N)[C@H](O)[C@H](C)O2)C1)C(=O)c1ccccc1C3=O` [Idarubicin] (0.1 nM) as the compound, how does the normalised response read?
Answer: The normalised response was 105%.

Question: With `C/C(=C\c1csc(C)n1)[C@@H]1C[C@@H]2O[C@]2(C)CCC[C@H](C)[C@H](O)[C@@H](C)C(=O)C(C)(C)[C@@H](O)CC(=O)N1` [Ixabepilone] (0.1 nM) as the compound, how does the normalised response read?
Answer: Its normalised response is 95.5%.

Question: `C=CCn1c(=O)c2cnc(Nc3ccc(N4CCN(C)CC4)cc3)nc2n1-c1cccc(C(C)(C)O)n1` [MK1775] (1 nM) was tested. Which normalised response did it give?
Answer: Its normalised response is 92.9%.

Question: With `CO[C@@H]1[C@H](N(C)C(=O)c2ccccc2)C[C@H]2O[C@]1(C)n1c3ccccc3c3c4c(c5c6ccccc6n2c5c31)C(=O)NC4` [Midostaurin] (1 nM) as the compound, how does the normalised response read?
Answer: Its normalised response is 97.2%.

Question: With `CO[C@@]12[C@H](COC(N)=O)C3=C(C(=O)C(C)=C(N)C3=O)N1C[C@@H]1N[C@@H]12` [Mitomycin C] (1 nM) as the compound, how does the normalised response read?
Answer: The normalised response was 94.3%.

Question: `CCNC(=O)c1noc(-c2cc(C(C)C)c(O)cc2O)c1-c1ccc(CN2CCOCC2)cc1` [NVP-AUY922] (0.1 nM) was tested. Which normalised response did it give?
Answer: The normalised response was 107%.

Test system: CAL-148
Assay: as above
Settings: incubation time: 72 h
In short: as §1

Question: With `CC(=O)[C@]1(O)Cc2c(O)c3c(c(O)c2[C@@H](O[C@H]2C[C@H](N)[C@H](O)[C@H](C)O2)C1)C(=O)c1ccccc1C3=O` [Idarubicin] (0.1 nM) as the compound, how does the normalised response read?
Answer: The normalised response was 110%.

Question: Which normalised response does the source give for `C/C(=C\c1csc(C)n1)[C@@H]1C[C@@H]2O[C@]2(C)CCC[C@H](C)[C@H](O)[C@@H](C)C(=O)C(C)(C)[C@@H](O)CC(=O)N1` [Ixabepilone] (0.1 nM) here?
Answer: Its normalised response is 99.3%.

Question: Which normalised response does the source give for `C=CCn1c(=O)c2cnc(Nc3ccc(N4CCN(C)CC4)cc3)nc2n1-c1cccc(C(C)(C)O)n1` [MK1775] (1 nM) here?
Answer: Its normalised response is 87.4%.

Question: Which normalised response does the source give for `CO[C@@H]1[C@H](N(C)C(=O)c2ccccc2)C[C@H]2O[C@]1(C)n1c3ccccc3c3c4c(c5c6ccccc6n2c5c31)C(=O)NC4` [Midostaurin] (1 nM) here?
Answer: Its normalised response is 103%.

Question: For `CO[C@@]12[C@H](COC(N)=O)C3=C(C(=O)C(C)=C(N)C3=O)N1C[C@@H]1N[C@@H]12` [Mitomycin C] (1 nM), which normalised response is on record?
Answer: Its normalised response is 95.3%.

Question: Which normalised response does the source give for `CCNC(=O)c1noc(-c2cc(C(C)C)c(O)cc2O)c1-c1ccc(CN2CCOCC2)cc1` [NVP-AUY922] (0.1 nM) here?
Answer: Its normalised response is 110%.

Test system: CAL-51
Assay: as above
Settings: incubation time: 72 h
In short: as §1

Question: How did the normalised response turn out when `CC(=O)[C@]1(O)Cc2c(O)c3c(c(O)c2[C@@H](O[C@H]2C[C@H](N)[C@H](O)[C@H](C)O2)C1)C(=O)c1ccccc1C3=O` [Idarubicin] (0.1 nM) was run?
Answer: The normalised response was 101%.

Question: How did the normalised response turn out when `C/C(=C\c1csc(C)n1)[C@@H]1C[C@@H]2O[C@]2(C)CCC[C@H](C)[C@H](O)[C@@H](C)C(=O)C(C)(C)[C@@H](O)CC(=O)N1` [Ixabepilone] (0.1 nM) was run?
Answer: The normalised response was 80%.

Question: Which normalised response does the source give for `C=CCn1c(=O)c2cnc(Nc3ccc(N4CCN(C)CC4)cc3)nc2n1-c1cccc(C(C)(C)O)n1` [MK1775] (1 nM) here?
Answer: The normalised response was 114%.
